Measurements reported in patent US10501487B2, “Antibacterial bismuth complexes” (priority 2015, dated 2019).
Like-named read-outs stand apart in the source and are kept apart here.

Columns and labels:
[1] = test system: cos 7 (monkey kidney-derived) cells; test: MTT-based toxicology assay; type: cell-based; settings: 1 mg/mL, two hours; preliminary results
Protocol: Toxicity testing was performed on the example complexes 1-5 as well as the corresponding ligands against cos 7 eukaryotic cells. Cytotoxicity was assessed using the MTT-based toxicology assay (Sigma-Aldrich; TOX1 assay kit) according to the manufacturer's instructions. Compounds were added to cultured cos 7 (monkey kidney-derived) cells at 1 mg/mL and 0.5 mg/mL for two hours. The MTT reagent was then added and cells were incubated at 37° C. for a further two hours. Following incubation, MTT solubilisation solution was added and mixed. Absorbance results were measured on a Tecan plate reader at 690 nm (background reading) and again at 570 nm. Results were calculated after subtracting the background reading (690 nm) from the values obtained at 570 nm. Cell viability was expressed as a normalised percentage against the blank (medium-only) negative controls. All assays were performed in duplicate.

[2] = test system: E. coli; test: Test 1: colony count after incubation in Lysogeny broth culture; type: cell-based; settings: for Colony E. coli: Table 1a, 10 mg in 5 mL culture, 2 hours at 37° C., Blank 8.00E+08 (examples), 6.40E+08 (second Blank); for inhibition of growth at 2000 µg/mL: Escherichia coli, 2 h, read-out: Reduction in bacterial growth (%) E. coli
Protocol: (§1) Bacteria were grown in […] Lysogeny broth (LB), shaking at 37° C. to an optical density (OD) of 0.6 (2-3 hr). The culture was divided in […]. One of the cultures was used as a control, containing no organobismuth(III) phosphinate complex. To the other culture, 10 mg of the appropriate organobismuth (III) phosphinate complex was added. The control and organobismuth(III) phosphinate complex-containing cultures were then incubated for 2 hours at 37° C. with shaking. An aliquot was removed from each culture, serially diluted and 50 uL spread on lysogeny broth plates (˜1 in 10^7 gives countable colony numbers for the wild type controls). The plates were incubated overnight at 37° C. The colonies were counted and multiplied by the dilution factor to determine the colony-forming unit (cfu)/ml of the original culture.
(§2) The experiments were also repeated in a lower concentration (0.5 mg/mL) in accordance with the procedure above, which is also shown in Table 2.

[3] = test system: S. aureus; test: as above; type: cell-based; settings: for Colony S. aureus: Table 1a, 10 mg in 5 mL culture, 2 hours at 37° C., Blank 8.00E+08 (examples), 4.00E+08 (second Blank); for inhibition of growth at 2000 µg/mL: Staphylococcus aureus, 2 h, read-out: Reduction in bacterial growth (%) S. aureus
Protocol: as §1, §2

[4] = test system: VRE; test: Test 3: complex incorporated in agar, colony growth; type: cell-based, Enterococcus; settings: 1 mg in agar (20 mL)
Protocol: (§3) The organobismuth (III) phosphinate complex (10 mg or 1 mg) was spread at the bottom of a petri dish. 20 mL of agar was poured on top, before allowing to dry and being stored in a cool dry place. MRSA and VRE were grown in 40 mL BHI with shaking at 37° C. to an OD (optical density) of 0.6 (2-3 hr). The bacteria were then grown for a further 2 hours at 37° C. The bacteria were then plated (at no dilution, 10^3-fold dilution, and 10^4-fold dilution on agar plates containing organobismuth (III) phosphinate and control plates containing no organobismuth (III) phosphinate. The plates were incubated overnight at 37° C. The colonies were counted and multiplied by the dilution factor to determine the colony-forming unit (cfu)/ml of the original culture.

[5] = test system: MRSA; test: as above; type: cell-based, Staphylococcus aureus; settings: 1 mg in agar (20 mL)
Protocol: as §3

[6] = 0.5 mg/mL, normalised against the Blank sample
[7] = 2 mg/mL, normalised against the Blank sample

Structure (SMILES): O=P([O][Bi]([O]P(=O)(c1ccccc1)c1ccccc1)[c]1ccccc1)(c1ccccc1)c1ccccc1 [Example 1, Phenyl bismuth bis(diphenylphosphinate)]
- toxicity (in words) [1]: relatively non-toxic

Structure (SMILES): COc1ccc(P(=O)([O][Bi]([O]P(=O)(c2ccc(OC)cc2)c2ccc(OC)cc2)[c]2ccccc2)c2ccc(OC)cc2)cc1 [Example 2, Phenyl bismuth bis(bis(4-methoxyphenyl)phosphinate)]
- Reduction in bacterial growth (%) E. coli [2, 6]: 100.00%
- Reduction in bacterial growth (%) E. coli [2, 7]: 100.00%
- Colony E. coli [2]: 1.50E+01 cfu/ml
- Reduction in bacterial growth (%) S. aureus [3, 6]: 40.00%
- Reduction in bacterial growth (%) S. aureus [3, 7]: 100.00%
- Colony S. aureus [3]: 0.00E+00 cfu/ml

Structure (SMILES): O=[N+]([O-])c1cccc(P(=O)([O][Bi]([O]P(=O)(c2cccc([N+](=O)[O-])c2)c2cccc([N+](=O)[O-])c2)[c]2ccccc2)c2cccc([N+](=O)[O-])c2)c1 [Example 3, Phenyl bismuth bis(bis(3-nitrophenyl)phosphinate)]
- bacterial growth on treated agar (in words) [4]: no bacterial growth was observed
- bacterial growth on treated agar (in words) [5]: no bacterial growth was observed
- Reduction in bacterial growth (%) E. coli [2, 6]: 97.00%
- Reduction in bacterial growth (%) E. coli [2, 7]: 100.00%
- Colony E. coli [2]: 0.00E+00 cfu/ml
- Reduction in bacterial growth (%) S. aureus [3, 6]: 90.00%
- Reduction in bacterial growth (%) S. aureus [3, 7]: 100.00%
- Colony S. aureus [3]: 0.00E+00 cfu/ml

Structure (SMILES): O=[PH]([O][Bi]([O][PH](=O)c1ccccc1)[c]1ccccc1)c1ccccc1 (stereo not drawn) [Example 4, Phenyl bismuth bis(phenylphosphinate)]
- toxicity (in words) [1]: relatively non-toxic

Structure (SMILES): CP(C)(=O)[O][Bi]([O]P(C)(C)=O)[c]1ccccc1 [Example 5, Phenyl Bismuth bis(dimethylphosphinate)]
- toxicity (in words) [1]: relatively non-toxic

Structure (SMILES): O=[N+]([O-])c1cccc(P(=O)(O)c2cccc([N+](=O)[O-])c2)c1 [bis(3-nitrophenyl)phosphinic acid, Bis(3-nitrophenyl)phosphinic acid]
- inhibition of growth at 2000 µg/mL [2, 7]: 90%
- Colony E. coli [2]: 8.00E+07 cfu/ml
- inhibition of growth at 2000 µg/mL [3, 7]: 0%
- Colony S. aureus [3]: 8.00E+08 cfu/ml

Structure (SMILES): COc1ccc(P(=O)(O)c2ccc(OC)cc2)cc1 [bis(4-methoxyphenyl)phosphinic acid]
- inhibition of growth at 2000 µg/mL [2, 7]: 90%
- Colony E. coli [2]: 8.00E+07 cfu/ml
- inhibition of growth at 2000 µg/mL [3, 7]: 25%
- Colony S. aureus [3]: 6.00E+08 cfu/ml

Structure (SMILES): CP(C)(=O)O [dimethyl phosphinic acid]
- inhibition of growth at 2000 µg/mL [2]: 78.8%
- Colony E. coli [2]: 1.70E+08 cfu/ml
- inhibition of growth at 2000 µg/mL [3]: 25%
- Colony S. aureus [3]: 6.00E+08 cfu/ml

Structure (SMILES): O=P(O)(c1ccccc1)c1ccccc1 [diphenylphosphinic acid]
- inhibition of growth at 2000 µg/mL [2, 7]: 70%
- Colony E. coli [2]: 2.40E+08 cfu/ml
- inhibition of growth at 2000 µg/mL [3, 7]: 0%
- Colony S. aureus [3]: 8.00E+08 cfu/ml

Structure (SMILES): O=[PH](O)c1ccccc1 [phenylphosphinic acid]
- inhibition of growth at 2000 µg/mL [2]: 60%
- Colony E. coli [2]: 3.20E+08 cfu/ml
- inhibition of growth at 2000 µg/mL [3]: 0%
- Colony S. aureus [3]: 8.00E+08 cfu/ml

Structure (SMILES): c1cc[c]([Bi]([c]2ccccc2)[c]2ccccc2)cc1 [triphenylbismuth]
- bacterial growth on treated agar (in words) [4]: grew to a comparable number as the blank
- bacterial growth on treated agar (in words) [5]: grew to a comparable number as the blank
